# Laboratory results taken from US4666897A, “Inhibition of mammalian collagenolytic enzymes by tetracyclines” (Research Foundation of State University, priority 1983, dated 1987).
# Key:
# [1] = system: gingival collagenolytic enzyme activity of diabetic rats; assay: Collagenolytic enzyme activity in extracts of gingiva from diabetic rats given minocycline; assay type: in vivo, rat; conditions: for Gingival Collagenolytic Activity (% C^14-Collagen Degraded): diabetes + oral daily drug
# Method: Rats were made diabetic chemically with the agent streptozotocin. Some of the diabetic rats (half were administered minocycline orally on a daily basis) were killed 15 days, or 28 days, or 56 days after inducing diabetes and the gingiva were dissected, the tissues were extracted, and the extracts partially purified by ammonium sulfate precipitation. The partially purified enzyme preparation from the gingiva of a group of non-diabetic (control) rats, and the diabetic rats, was incubated at 37° C. in vitro with radiolabeled collagen fibrils to assess collagenolytic ennzyme activity.
# [2] = system: fetal rat bones (radii and ulnae) in organ culture; assay: PTH-induced bone resorption in organ culture (45calcium release); assay type: cell-based
# Method: The technique used to assess bone resorption is based on monitoring the release of radioactive calcium, previously incorporated by embryonic bones in vivo, during organ culture. Pregnant Sprague-Dawley rats were injected subcutaneously with 200 μCi of ^45 calcium chloride on the 18th day of gestation. The following day, the animals were killed, the fetuses removed, and the radii and ulnae dissected under aseptic conditions. […] The bones were then randomly distributed and each bone, either a radius or ulna, was incubated in 0.5 ml of culture media alone or in a media containing parathyroid hormone (PTH: human synthetic 1-34 peptide, Beckman Instruments, Inc., Palo Alto, California) added in a final concentration of 1.0 μg/ml; the experimental bones were incubated in the PTH containing medium to which was added different concentrations (0.2-300 μg/ml) of the antibiotics to be tested. The bones were cultured for 5 days, with the media being changed after day 2, and the incubation terminated. The bones were decalcified in 0.2 ml of 5% trichloroacetic acid and the ^45 calcium content of the residual bones and of the culture media was measured as described previously. (Werner and Raisz, Endocrinology, 90, 752 (1972 ) and Gomes, et. al., Calc. Tiss. Res., 19, 285 (1976)). The ^45 calcium released into the media was calculated as a percentage of the total radioactive calcium measured in the bones.
# [3] = Table 3, PTH + 2 μg/ml minocycline + 100 μg/ml Pen.-Strep.
# [4] = Table 3, PTH + 2 μg/ml minocycline + 300 μg/ml Pen.-Strep.
# [5] = Table 3, PTH + 20 μg/ml minocycline + 100 μg/ml Pen.-Strep.
compound,measurement,setting,value
"CN(C)c1ccc(O)c2c1C[C@H]1C[C@H]3[C@H](N(C)C)C(O)=C(C(N)=O)C(=O)[C@@]3(O)C(O)=C1C2=O [minocycline, Minocycline]",% Inhibition of Collagenolytic Activity by Minocycline,[1]; 15 days,42.5%
same,% Inhibition of Collagenolytic Activity by Minocycline,[1]; 28 days,72.7%
same,% Inhibition of Collagenolytic Activity by Minocycline,[1]; 56 days,77.2%
same,Gingival Collagenolytic Activity (% C^14-Collagen Degraded),"[1]; 15 days, untreated diabetic 50.4, control 9.1",29.0%
same,Gingival Collagenolytic Activity (% C^14-Collagen Degraded),"[1]; 28 days, untreated diabetic 63.0, control 9.1",17.2%
same,Gingival Collagenolytic Activity (% C^14-Collagen Degraded),"[1]; 56 days, untreated diabetic 47.8, control 9.1",10.9%
same,^45 Calcium in Fetal Bone Released into Media (%) after 2 days incubation,"[2]; Table 3, PTH + 0.2 μg/ml",42.6 ± 0.6%
same,^45 Calcium in fetal bone Released into media (%) after 5 days incubation,"[2]; Table 3, PTH + 0.2 μg/ml",75.6 ± 1.0%
same,^45 Calcium in Fetal Bone Released into Media (%) after 2 days incubation,"[2]; Table 3, PTH + 2 μg/ml",44.2 ± 2.1%
same,^45 Calcium in fetal bone Released into media (%) after 5 days incubation,"[2]; Table 3, PTH + 2 μg/ml",74.7 ± 3.1%
same,^45 Calcium in Fetal Bone Released into Media (%) after 2 days incubation,[2]; [3],42.9 ± 1.9%
same,^45 Calcium in fetal bone Released into media (%) after 5 days incubation,[2]; [3],70.2 ± 3.7%
same,^45 Calcium in Fetal Bone Released into Media (%) after 2 days incubation,[2]; [4],45.7 ± 2.5%
same,^45 Calcium in fetal bone Released into media (%) after 5 days incubation,[2]; [4],71.8 ± 3.5%
same,^45 Calcium in Fetal Bone Released into Media (%) after 2 days incubation,"[2]; Table 3, PTH + 20 μg/ml",22.5 ± 1.6%
same,^45 Calcium in fetal bone Released into media (%) after 5 days incubation,"[2]; Table 3, PTH + 20 μg/ml",29.2 ± 1.8%
same,^45 Calcium in Fetal Bone Released into Media (%) after 2 days incubation,[2]; [5],21.5 ± 1.5%
same,^45 Calcium in fetal bone Released into media (%) after 5 days incubation,[2]; [5],31.9 ± 2.1%
same,^45 Calcium in fetal bone Released into media (%) after 5 days incubation,"[2]; Table 3, PTH + 20 μg/ml minocycline + 300 μg/ml Pen.-Strep.",33.5 ± 1.3%
same,^45 Calcium in Fetal Bone Released into Media (%) after 2 days incubation,"[2]; Table 3, PTH + 60 μg/ml",19.4 ± 0.9%
same,^45 Calcium in fetal bone Released into media (%) after 5 days incubation,"[2]; Table 3, PTH + 60 μg/ml",24.5 ± 1.1%
same,^45 Calcium in Fetal Bone Released into Media (%) after 2 days incubation,"[2]; Table 3, PTH + 200 μg/ml",17.6 ± 0.4%
same,^45 Calcium in fetal bone Released into media (%) after 5 days incubation,"[2]; Table 3, PTH + 200 μg/ml",22.3 ± 0.5%
same,^45 Calcium in Fetal Bone Released into Media (%) after 2 days incubation,"[2]; Table 4, first column, PTH + 0.2 μg/ml",54.5 ± 4.1%
same,^45 Calcium in Fetal Bone Released into Media (%) after 2 days incubation,"[2]; Table 4, first column, PTH + 2.0 μg/ml",56.5 ± 2.6%
same,^45 Calcium in Fetal Bone Released into Media (%) after 2 days incubation,"[2]; Table 4, first column, PTH + 20 μg/ml",40.7 ± 0.8%
same,^45 Calcium in Fetal Bone Released into Media (%) after 2 days incubation,"[2]; Table 4, first column, PTH + 200 μg/ml",16.4 ± 1.1%
same,^45 Calcium in Fetal Bone Released into Media (%) after 2 days incubation,"[2]; Table 4, second column, PTH + 0.2 μg/ml",95.1 ± 1.8%
same,^45 Calcium in Fetal Bone Released into Media (%) after 2 days incubation,"[2]; Table 4, second column, PTH + 2.0 μg/ml",93.3 ± 2.6%
same,^45 Calcium in Fetal Bone Released into Media (%) after 2 days incubation,"[2]; Table 4, second column, PTH + 20 μg/ml",50.1 ± 0.8%
same,^45 Calcium in Fetal Bone Released into Media (%) after 2 days incubation,"[2]; Table 4, second column, PTH + 200 μg/ml",20.4 ± 1.5%
same,"effect on PTH-enhanced bone resorption, in words",[2]; concentrations 0.2-300 μg/ml,inhibit ^45 calcium release in a dose responsive manner
